According to the CheMixHub viscosity set:

Assay: xn = mol fraction of the nth substance listed

CCC(C)=O + CC(C)O
101 kPa
Conditions | viscosity [mPa·s]
308.15 K, x1 = 0.1282 | 1.095
313.15 K, x1 = 0.0595 | 1.165

COc1ccccc1N + CC(=O)O
viscosity [mPa·s], 100 kPa
Conditions | x1 = 0.1011 | x1 = 0.1745 | x1 = 0.2562 | x1 = 0.3454 | x1 = 0.4852 | x1 = 0.5894 | x1 = 0.6674 | x1 = 0.7458 | x1 = 0.8979
303.15 K | 1.442 | 1.732 | 2.053 | 2.402 | 2.947 | 3.351 | 3.652 | 3.953 | 4.535
308.15 K | 1.349 | 1.618 | 1.916 | 2.24 | 2.745 | 3.118 | 3.397 | 3.676 | 4.214
313.15 K | 1.257 | 1.505 | 1.78 | 2.078 | 2.541 | 2.885 | 3.141 | 3.397 | 3.891
318.15 K | 1.166 | 1.394 | 1.646 | 1.92 | 2.346 | 2.662 | 2.897 | 3.132 | 3.584

CCC(C)=O + C1CCCCC1
Conditions | viscosity [mPa·s]
293.15 K, 101.33 kPa, x2 = 0.0479 | 0.401
293.15 K, 101.33 kPa, x2 = 0.0956 | 0.404
293.15 K, 101.33 kPa, x2 = 0.1983 | 0.433
293.15 K, 101.33 kPa, x2 = 0.3046 | 0.466
293.15 K, 101.33 kPa, x2 = 0.4002 | 0.488
293.15 K, 101.33 kPa, x2 = 0.5028 | 0.53
293.15 K, 101.33 kPa, x2 = 0.6056 | 0.581
293.15 K, 101.33 kPa, x2 = 0.703 | 0.641
293.15 K, 101.33 kPa, x2 = 0.8048 | 0.72
293.15 K, 101.33 kPa, x2 = 0.9029 | 0.824
293.15 K, 101.33 kPa, x2 = 0.9515 | 0.888
298 K, 101.3 kPa, x2 = 0.126 | 0.426
298 K, 101.3 kPa, x2 = 0.2633 | 0.448
298 K, 101.3 kPa, x2 = 0.4524 | 0.501
298 K, 101.3 kPa, x2 = 0.6037 | 0.554
298 K, 101.3 kPa, x2 = 0.8267 | 0.685
298.15 K, 101 kPa, x2 = 0.1 | 0.41
298.15 K, 101 kPa, x2 = 0.2 | 0.425
298.15 K, 101 kPa, x2 = 0.3 | 0.444
298.15 K, 101 kPa, x2 = 0.4 | 0.472
298.15 K, 101 kPa, x2 = 0.5 | 0.508
298.15 K, 101 kPa, x2 = 0.6 | 0.548
298.15 K, 101 kPa, x2 = 0.7 | 0.595
298.15 K, 101 kPa, x2 = 0.8 | 0.665
298.15 K, 101 kPa, x2 = 0.9 | 0.752
298.15 K, 101.33 kPa, x2 = 0.0479 | 0.381
298.15 K, 101.33 kPa, x2 = 0.0956 | 0.39
298.15 K, 101.33 kPa, x2 = 0.1983 | 0.41
298.15 K, 101.33 kPa, x2 = 0.3046 | 0.441
298.15 K, 101.33 kPa, x2 = 0.4002 | 0.459
298.15 K, 101.33 kPa, x2 = 0.5028 | 0.498
298.15 K, 101.33 kPa, x2 = 0.6056 | 0.543
298.15 K, 101.33 kPa, x2 = 0.703 | 0.597
298.15 K, 101.33 kPa, x2 = 0.8048 | 0.668
298.15 K, 101.33 kPa, x2 = 0.9029 | 0.76
298.15 K, 101.33 kPa, x2 = 0.9515 | 0.816
303.15 K, 101.33 kPa, x2 = 0.0479 | 0.363
303.15 K, 101.33 kPa, x2 = 0.0956 | 0.37
303.15 K, 101.33 kPa, x2 = 0.1983 | 0.388
303.15 K, 101.33 kPa, x2 = 0.3046 | 0.419
303.15 K, 101.33 kPa, x2 = 0.4002 | 0.433
303.15 K, 101.33 kPa, x2 = 0.5028 | 0.468
303.15 K, 101.33 kPa, x2 = 0.6056 | 0.51
303.15 K, 101.33 kPa, x2 = 0.703 | 0.558
303.15 K, 101.33 kPa, x2 = 0.8048 | 0.622
303.15 K, 101.33 kPa, x2 = 0.9029 | 0.705
303.15 K, 101.33 kPa, x2 = 0.9515 | 0.754
307.35 K, 101.33 kPa, x1 = 0.1093 | 0.648
307.35 K, 101.33 kPa, x1 = 0.361 | 0.504
307.35 K, 101.33 kPa, x1 = 0.4975 | 0.453
307.35 K, 101.33 kPa, x1 = 0.555 | 0.429
307.35 K, 101.33 kPa, x1 = 0.6809 | 0.413
307.35 K, 101.33 kPa, x1 = 0.8865 | 0.366
318 K, 101.3 kPa, x2 = 0.1257 | 0.349
318 K, 101.3 kPa, x2 = 0.2611 | 0.3682
318 K, 101.3 kPa, x2 = 0.4518 | 0.3996
318 K, 101.3 kPa, x2 = 0.6033 | 0.4343
318 K, 101.3 kPa, x2 = 0.8254 | 0.5157

COC(C)=O + CC(O)CO
Conditions | viscosity [mPa·s]
298.15 K, 101 kPa, x1 = 0.251 | 12.35
